Experiments:
HNECs [1] = experiment: MTT cytotoxicity assay on HNECs; type: cell-based, human; settings: 24 h
Experimental: The cytotoxicity of the main active ingredients in “Xing Nao Jing” on HNECs was evaluated by the methyl thiazolyl tetrazolium (MTT) colorimetric assay. Briefly, 100 µL of 5×10^4 cells·mL^−1 was seeded into 96-well plates. After 24 h, the medium was removed and replaced with a fresh medium containing increasing concentrations of geniposide, borneol, muscone and their combinations for another 24 h. After that, 15 µL of a 5 mg·mL^−1 MTT solution in 100 µL BEGM was added to each well. After 4 h of incubation, the supernatant was discarded and formazan crystals were dissolved in DMSO followed by vigorous mixing. Control wells were incubated with BEGM only and were treated similarly as above. The optical density was determined at 490 nm with a Multiskan Go microplate reader (Thermo, USA). The percent viability of the cells was determined from the absorbance values considering that of the control as 100%.
The percentage of cell toxicity in the MTT assay was calculated by the following equation (1): [drawing 1]

[2] = Transport of geniposide across the HNEC monolayer; type: in vitro ADME, human; settings: human
Experimental: (§1) When HNECs reached approximately 80–90% confluence, the cells were detached with trypsin and were seeded at a density of 2×10^5 cells·cm^−2 on PET inserts. The culture medium was BEGM:DMEM/F12 (1∶1) in both sides at 37 °C in an atmosphere of 5% CO2 and 95% relative humidity, which was first changed after 24 h of seeding and then every 2 days.
(§2) The transport experiments were carried out when transepithelial electrical resistance (TEER) value was higher than 500 Ω·cm^2. The transport studies were performed by initially incubating the monolayers in Hanks balanced salt solution (HBSS) for 30 min at 37 °C. To measure apical (A) → basolateral (B) transport, 0.5 mL of drug solution and 1.5 mL of HBSS were added in the A and B sides, respectively. Basolateral (B) → apical (A) transport was evaluated by adding 1.5 mL of drug solution in B side and 0.5 mL of HBSS in A side.
(§3) Geniposide transport was studied at three concentrations: 25, 50 and 100 µg·mL^−1. The effect of borneol was studied at 27.8, 55.6 and 111.2 µg·mL^−1 concentrations in the presence of 50 µg·mL^−1 geniposide. The effect of muscone was studied at 4.17, 8.34 and 16.68 µg·mL^−1 concentrations in the presence of 50 µg·mL^−1 geniposide. Finally, the effects of both borneol and muscone were studied at the concentrations mentioned above in the presence of 50 µg·mL^−1 geniposide.
(§4) Each measurement was evaluated in triplicate. Cells were incubated in a 37 °C shaking incubator. Samples of 200 µL were taken from the apical side (to study B → A transport) and samples of 600 µL were taken from the basal side (to study A → B transport) at 30, 60, 90, 120, 150, 180 min time intervals. The same volume of fresh preheated HBSS was added to keep the volume constant. Samples were centrifuged for 10 min at 12,000 r·min^−1 and the supernatant was analyzed for geniposide by HPLC.
(§5) An UV-HPLC method was used to quantify the geniposide concentrations in the transport studies. The chromatographic conditions consisted of a Purospher Star C18 column (4×200 mm, particle size 5 µm) plus guard column. Geniposide samples were analyzed with UV detection (λ = 238 nm) and the mobile phase was composed of acetonitrile and water (16∶84, v/v). The mobile phase was pumped at a flow rate of 1 mL·min^−1 and the injected volume was 20 µL. In these conditions, the retention time of geniposide was 8.5 min.
(§6) The apparent permeability coefficients (Papp) for geniposide were calculated according to the following equation (2): [drawing 2] where Papp is the permeability, dQ/dt is the apparent appearance rate of drug in the receiver side calculated using linear regression of amounts in the receiver chamber versus time, C is the drug concentration in the donor chamber and S is the surface area of the monolayer. The efflux ratio (ER) was calculated according to the following equation (3): [drawing 3]

HNEC monolayer = experiment: Transport of geniposide across the HNEC monolayer; type: in vitro ADME, human; settings: for B→A fluxes of geniposide / A→B fluxes of geniposide: P<0.05 vs control
Experimental: as §1, §2, §3, §4, §5, §6

P-gp = P-gp substrate assessment from bidirectional transport in HNEC monolayer; type: in vitro ADME, human; settings: HNEC model
Experimental: as §2, §6

HNECs [3] = experiment: Membrane fluidity of HNECs by FRAP; type: cell-based, human; settings: Ge 50 µg·mL^−1 alone (control), 3 h
Experimental: The cells were seeded on cell plate at a density of 5×10^4 cells·cm^−2. The above formulation groups were added and the plates were incubated for 3 h at 37 °C in a 5% CO2 incubator. Cells were rinsed with HBSS and stained with NBD-C6-HPC at 2 µg·mL^−1 for 30 min.
A method of fluorescence recovery after photobleaching (FRAP) was used here. After the definition of line scanning position, length and photobleaching position, the monolayer was visualized by a Confocal Laser Scanning Microscope under the following conditions: excitation wavelength of 488 nm, emission wavelength of 530 nm, laser power for fluorescence bleaching of 100%, bleaching time of 0.7 s, scanning frequency of 1.65 s and the total scanning time of 100 s. The fluorescence intensity time-variation at the photobleaching position was recorded and image formation was obtained by confocal tomoscanning.
The membrane fluidity was represented by fluorescence recovery rate (R) which was calculated with the following equation (4): [drawing 4] where F0 is the instant fluorescence value after photobleaching, F1 is the fluorescence value before photobleaching and F2 is the fluorescence recovery value after photobleaching.

[4] = rats, at 3 h; cited from earlier work
[5] = cited from earlier work
[6] = mice, intravenous administration; cited from earlier work
[7] = Ge 50 µg·mL^−1 +Bo 27.8 µg·mL^−1
[8] = Ge 50 µg·mL^−1 +Bo 27.8 µg·mL^−1 Mu 4.17 µg·mL^−1
[9] = Ge 50 µg·mL^−1 +Bo 55.6 µg·mL^−1
[10] = Ge 50 µg·mL^−1 +Bo 55.6 µg·mL^−1 Mu 8.34 µg·mL^−1
[11] = Ge 50 µg·mL^−1 +Bo 111.2 µg·mL^−1
[12] = Ge 50 µg·mL^−1 +Bo 111.2 µg·mL^−1 Mu 16.68 µg·mL^−1
[13] = Ge 50 µg·mL^−1 +Mu 4.17 µg·mL^−1
[14] = Ge 50 µg·mL^−1 +Mu 8.34 µg·mL^−1
[15] = Ge 50 µg·mL^−1 +Mu 16.68 µg·mL^−1
[16] = geniposide 50 µg·mL^−1 alone (control)

COC(=O)C1=CO[C@@H](O[C@@H]2O[C@H](CO)[C@@H](O)[C@H](O)[C@H]2O)[C@@H]2C(CO)=CC[C@H]12 [geniposide, Geniposide]
concentration range with no cell cytotoxicity (HNECs [1]): 0 to 400000 ng/mL
Papp A→B at 180 min, 50 µg·mL^−1 [2, 7]: 1.17 ± 0.12 ×10⁻⁶ cm/s
Papp B→A at 180 min, 50 µg·mL^−1 [2, 7]: 1.61 ± 0.034 ×10⁻⁶ cm/s
Papp A→B at 180 min, 50 µg·mL^−1 [2, 8]: 1.43 ± 0.083 ×10⁻⁶ cm/s
Papp B→A at 180 min, 50 µg·mL^−1 [2, 8]: 1.81 ± 0.024 ×10⁻⁶ cm/s
Papp A→B at 180 min, 50 µg·mL^−1 [2, 9]: 1.35 ± 0.086 ×10⁻⁶ cm/s
Papp B→A at 180 min, 50 µg·mL^−1 [2, 9]: 1.92 ± 0.111 ×10⁻⁶ cm/s
Papp A→B at 180 min, 50 µg·mL^−1 [2, 10]: 1.75 ± 0.043 ×10⁻⁶ cm/s
Papp B→A at 180 min, 50 µg·mL^−1 [2, 10]: 1.916 ± 0.019 ×10⁻⁶ cm/s
Papp A→B at 180 min, 50 µg·mL^−1 [2, 11]: 1.99 ± 0.293 ×10⁻⁶ cm/s
Papp B→A at 180 min, 50 µg·mL^−1 [2, 11]: 1.99 ± 0.126 ×10⁻⁶ cm/s
Papp A→B at 180 min, 50 µg·mL^−1 [2, 12]: 1.92 ± 0.049 ×10⁻⁶ cm/s
Papp B→A at 180 min, 50 µg·mL^−1 [2, 12]: 2.39 ± 0.052 ×10⁻⁶ cm/s
Papp A→B at 180 min, 50 µg·mL^−1 [2, 13]: 1.15 ± 0.068 ×10⁻⁶ cm/s
Papp B→A at 180 min, 50 µg·mL^−1 [2, 13]: 1.6 ± 0.021 ×10⁻⁶ cm/s
Papp A→B at 180 min, 50 µg·mL^−1 [2, 14]: 1.61 ± 0.054 ×10⁻⁶ cm/s
Papp B→A at 180 min, 50 µg·mL^−1 [2, 14]: 2.039 ± 0.018 ×10⁻⁶ cm/s
Papp A→B at 180 min, 50 µg·mL^−1 [2, 15]: 1.97 ± 0.108 ×10⁻⁶ cm/s
Papp B→A at 180 min, 50 µg·mL^−1 [2, 15]: 2.104 ± 0.02 ×10⁻⁶ cm/s
Papp A→B at 180 min, 25 µg·mL^−1 ([2]; geniposide 25 µg·mL^−1): 1.27 ± 0.314 ×10⁻⁶ cm/s
Papp B→A at 180 min, 25 µg·mL^−1 ([2]; geniposide 25 µg·mL^−1): 1.35 ± 0.113 ×10⁻⁶ cm/s
efflux ratio at 180 min, 25 µg·mL^−1 ([2]; geniposide 25 µg·mL^−1, read-out: ER±SD(B→A/A→B)): 1.1 ± 0.256
Papp A→B at 180 min, 50 µg·mL^−1 [2, 16]: 1.22 ± 0.015 ×10⁻⁶ cm/s
Papp B→A at 180 min, 50 µg·mL^−1 [2, 16]: 1.26 ± 0.084 ×10⁻⁶ cm/s
efflux ratio at 180 min, 50 µg·mL^−1 ([2]; geniposide 50 µg·mL^−1 alone (control), read-out: ER±SD(B→A/A→B)): 1.03 ± 0.076
Papp A→B at 180 min, 100 µg·mL^−1 ([2]; geniposide 100 µg·mL^−1): 1.25 ± 0.074 ×10⁻⁶ cm/s
Papp B→A at 180 min, 100 µg·mL^−1 ([2]; geniposide 100 µg·mL^−1): 1.19 ± 0.104 ×10⁻⁶ cm/s
efflux ratio at 180 min, 100 µg·mL^−1 ([2]; geniposide 100 µg·mL^−1, read-out: ER±SD(B→A/A→B)): 0.951 ± 0.132
Papp at 180 min ([2]; HNEC monolayer, geniposide 25-100 µg·mL^−1, read-out: permeability coefficients): 1.22 to 1.27 ×10⁻⁶ cm/s
ER±SD(B→A/A→B) (HNEC monolayer; [7]): 1.388±0.162
ER±SD(B→A/A→B) (HNEC monolayer; [8]): 1.268±0.057
ER±SD(B→A/A→B) (HNEC monolayer; [9]): 1.429±0.149
ER±SD(B→A/A→B) (HNEC monolayer; [10]): 1.092±0.023
ER±SD(B→A/A→B) (HNEC monolayer; [11]): 1.012±0.106
ER±SD(B→A/A→B) (HNEC monolayer; [12]): 1.245±0.026
ER±SD(B→A/A→B) (HNEC monolayer; [13]): 1.400±0.071
ER±SD(B→A/A→B) (HNEC monolayer; [14]): 1.268±0.033
ER±SD(B→A/A→B) (HNEC monolayer; [15]): 1.072±0.069
B→A fluxes of geniposide (HNEC monolayer; Ge 50 µg·mL^−1 combined with borneol (27.8, 55.6, 111.2 µg·mL^−1)): significantly increased
B→A fluxes of geniposide (HNEC monolayer; Ge 50 µg·mL^−1 combined with muscone (4.17, 8.34, 16.68 µg·mL^−1)): significantly increased
A→B fluxes of geniposide (HNEC monolayer; Ge 50 µg·mL^−1 in presence of borneol (111.2 µg·mL^−1)): significantly increased
A→B fluxes of geniposide (HNEC monolayer; Ge 50 µg·mL^−1 in presence of muscone (8.34, 16.68 µg·mL^−1)): significantly increased
permeability values in both directions (HNEC monolayer; Ge 50 µg·mL^−1 in the presence of borneol and muscone (Bo 27.8/Mu 4.17, Bo 55.6/Mu 8.34, Bo 111.2/Mu 16.68 µg·mL^−1), P<0.05): an increasing of permeability values in both directions was observed in a concentration-dependent manner
(B→A)/(A→B) permeability ER (HNEC monolayer; geniposide 25, 50 and 100 µg·mL^−1): less than 2
P-gp substrate (P-gp): not a P-gp substrate
Fluorescence recovery rate R (%)±SD (HNECs [3]): 33.08±1.74%
absorption percentage in the intestinal tract [4]: about 15.9%
apparent partition coefficient between octanol and water [5]: about 0.108
brain/blood drug ratio [6]: about 10%

Reference: article PMC4081582, “Enhancing Effect of Borneol and Muscone on Geniposide Transport across the Human Nasal Epithelial Cell Monolayer” (PLoS ONE, 2014)
